The target in this assay is T1, human M1 receptor (hCHRM1) (Homo sapiens, UniProt P11229).
T1 construct: expressed in transfected cells
T1 sequence (P11229 1-460): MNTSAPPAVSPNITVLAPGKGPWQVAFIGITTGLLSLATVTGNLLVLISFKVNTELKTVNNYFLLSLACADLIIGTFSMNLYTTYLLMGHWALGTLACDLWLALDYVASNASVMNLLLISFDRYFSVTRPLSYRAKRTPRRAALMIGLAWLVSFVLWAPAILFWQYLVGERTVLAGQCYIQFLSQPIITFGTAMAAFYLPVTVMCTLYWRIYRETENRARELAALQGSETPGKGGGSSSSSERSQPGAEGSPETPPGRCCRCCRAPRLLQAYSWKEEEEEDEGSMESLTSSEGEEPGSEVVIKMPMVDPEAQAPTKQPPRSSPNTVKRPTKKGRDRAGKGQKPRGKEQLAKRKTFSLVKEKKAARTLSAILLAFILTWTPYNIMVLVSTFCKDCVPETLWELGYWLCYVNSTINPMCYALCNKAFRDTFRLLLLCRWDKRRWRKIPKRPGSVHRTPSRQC
As to the kind of experiment: Measurement of M1 receptor positive allosteric modulator (M1PAM) activity, calcium fluorescence (FLIPRtetra) with acetylcholine at EC20. In kind it is cell-based. To be noted: for activity (%) at 10 μM: 10 μM test compound, 100% = acetylcholine 1 μM, 0% = DMSO, acetylcholine at EC20; for EC50: inflection point of concentration-dependent curve, CHO-K1 cells expressing hCHRM1, acetylcholine at EC20 (final 0.6-0.8 nM), read-out: IP value. In short, it runs like this:
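CHO-K1 cells stably expressing hCHRM1, Fluo-4 AM loaded; compound added with acetylcholine at EC20 (final 0.6-0.8 nM), fluorescence read 1 min. Activity normalised to 1 μM acetylcholine (100%) and DMSO (0%); IP values taken as inflection point of the concentration-response curve.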

Consider `Cc1c(Cc2ccc(C#N)cc2F)cc2c(c1C)CN([C@H]1CCC[C@@H]1O)C2=O` [Example 125, 3-fluoro-4-((2-((1S,2S)-2-hydroxycyclopentyl)-6,7-dimethyl-3-oxo-2,3-dihydro-1H-isoindol-5-yl)benzyl)benzonitrile], for which the “activity (%) at 10 μM” value was 93% and the EC50 is 73 nM.
`Cc1c(Cc2ccc(-n3cccn3)cc2)cc2c(c1F)CN([C@H]1CCCC[C@@H]1O)C2=O` (racemic) [Example 78, rac-4-fluoro-2-(trans-2-hydroxycyclohexyl)-5-methyl-6-(4-(1H-pyrazol-1-yl)benzyl)isoindolin-1-one]: the “activity (%) at 10 μM” value is given as 95% and the EC50 was 8.8 nM.
For `Cc1cc(-c2ccc(Cc3cc4c(cc3C)CN([C@H]3CCC[C@@H]3O)C4=O)cn2)ccn1` (racemic) [Example 41, rac-2-(trans-2-hydroxycyclopentyl)-5-methyl-6-((2′-methyl-2,4′-bipyridin-5-yl)methyl)isoindolin-1-one], in that order: 97% and 30 nM.
Consider `Cc1c(Cc2ccc(-c3cn(C)nn3)cc2)cc2c(c1C)CN(C[C@@H]1CCCO1)C2=O` [Example 14, 4,5-dimethyl-6-(4-(1-methyl-1H-1,2,3-triazol-4-yl)benzyl)-2-((2S)-tetrahydrofuran-2-ylmethyl)isoindolin-1-one], for which the “activity (%) at 10 μM” value amounted to 94% and the EC50 came out at 1.2 nM.
As for `Cc1cc2c(cc1Cc1ccc(-c3cn(C)nn3)cc1)C(=O)N(CC1CCCO1)C2` (stereo not shown) [Example 49, 5-methyl-6-(4-(1-methyl-1H-1,2,3-triazol-4-yl)benzyl)-2-(tetrahydrofuran-2-ylmethyl)isoindolin-1-one], the “activity (%) at 10 μM” value is recorded as 97% and the EC50 was determined as 31 nM.
For `CCc1cc2c(cc1Cc1ccc(-n3cccn3)cc1)C(=O)N(CC1CCCO1)C2` (stereo not shown) [Example 58, 5-ethyl-6-(4-(1H-pyrazol-1-yl)benzyl)-2-(tetrahydrofuran-2-ylmethyl)isoindolin-1-one], in that order: 100% and 95 nM.
For `O=C1c2cc(Cc3ccc(-n4cccn4)cc3)c(C3CC3)cc2CN1[C@H]1CCC[C@@H]1O` (racemic) [Example 9, rac-5-cyclopropyl-2-(trans-2-hydroxycyclopentyl)-6-(4-(1H-pyrazol-1-yl)benzyl)isoindolin-1-one], the “activity (%) at 10 μM” value is reported as 102% and the EC50 is 43 nM.
With `COc1ccc(Cc2cc3c(c(F)c2OC)CN([C@H]2COCC[C@@H]2O)C3=O)cc1` [Example 157], the “activity (%) at 10 μM” value is 97% and the EC50 came to 84 nM.
In the case of `CCc1cc2c(cc1Cc1ccc(-c3ccn(C)n3)cc1)C(=O)N([C@H]1COCC[C@@H]1O)C2` [Example 116, 5-ethyl-2-[(3S,4S)-4-hydroxytetrahydro-2H-pyran-3-yl]-6-[4-(1-methyl-1H-pyrazol-3-yl)benzyl]-2,3-dihydro-1H-isoindol-1-one], the “activity (%) at 10 μM” value amounted to 111% and the EC50 turned out to be 6.1 nM.
Turning to `Cc1c(Cc2ccc(C#N)c(F)c2)cc2c(c1C)CN([C@H]1COCC[C@@H]1O)C2=O` [Example 26, 1,5-anhydro-2-(6-(4-cyano-3-fluorobenzyl)-4,5-dimethyl-1-oxo-1,3-dihydro-2H-isoindol-2-yl)-2,4-dideoxy-L-threo-pentitol], the “activity (%) at 10 μM” value stood at 99% and the EC50 stood at 9.2 nM.
In the case of `Cn1cc(-c2ccc(Cc3cc4c(cc3C3CC3)CN([C@H]3CCC[C@@H]3O)C4=O)cc2)nn1` (racemic) [Example 64, rac-5-cyclopropyl-2-(trans-2-hydroxycyclopentyl)-6-(4-(1-methyl-1H-1,2,3-triazol-4-yl)benzyl)isoindolin-1-one], the “activity (%) at 10 μM” value came out at 104% and the EC50 worked out at 22 nM.
With `CCc1cc2c(cc1Cc1ccc(OC)cc1)C(=O)N([C@H]1COCC[C@@H]1O)C2` [Example 148, 5-ethyl-2-[(3S,4S)-4-hydroxytetrahydro-2H-pyran-3-yl]-6-(4-methoxybenzyl)-2,3-dihydro-1H-isoindol-1-one], the “activity (%) at 10 μM” value worked out at 89% and the EC50 amounted to 63 nM.
With `Cc1cc2c(cc1Cc1ccc(-c3ccn(C)n3)cc1)C(=O)N([C@H]1CCC[C@@H]1O)C2` (racemic) [Example 51, rac-2-(trans-2-hydroxycyclopentyl)-5-methyl-6-(4-(1-methyl-1H-pyrazol-3-yl)benzyl)isoindolin-1-one], the “activity (%) at 10 μM” value came to 86% and the EC50 was 42 nM.
On to `Cc1cc2c(cc1Cc1ccc(-c3cn(C)nn3)cc1)C(=O)N([C@H]1CCCC[C@@H]1O)C2` (racemic) [Example 47, rac-2-(trans-2-hydroxycyclohexyl)-5-methyl-6-(4-(1-methyl-1H-1,2,3-triazol-4-yl)benzyl)isoindolin-1-one], for which the “activity (%) at 10 μM” value is listed as 99% and the EC50 was 3 nM.
For `Cc1cc(-c2ccc(Cc3cc4c(cc3C)CN([C@H]3CCC[C@@H]3O)C4=O)cc2)cnn1` (racemic) [Example 91, rac-2-(trans-2-hydroxycyclopentyl)-5-methyl-6-(4-(6-methylpyridazin-4-yl)benzyl)isoindolin-1-one], in that order: 95% and 38 nM.
For the compound `Cc1c(Cc2ccc(-n3cccn3)cc2)cc2c(c1F)CN(CC(C)(C)O)C2=O` [Example 127, 4-fluoro-2-(2-hydroxy-2-methylpropyl)-5-methyl-6-(4-(1H-pyrazol-1-yl)benzyl)isoindolin-1-one], the “activity (%) at 10 μM” value worked out at 104% and the EC50 was determined as 59 nM.
For the compound `Cc1c(Cc2ccc(-n3cccn3)cc2F)cc2c(c1C)CN([C@H]1CCC[C@@H]1O)C2=O` [Example 16, 6-(2-fluoro-4-(1H-pyrazol-1-yl)benzyl)-2-((1S,2S)-2-hydroxycyclopentyl)-4,5-dimethylisoindolin-1-one], the “activity (%) at 10 μM” value stood at 94% and the EC50 worked out at 12 nM.
For the compound `COc1ccc(Cc2cc3c(c(F)c2C)CN([C@H]2CCCC[C@@H]2O)C3=O)cc1` [Example 154, 4-fluoro-2-((1S,2S)-2-hydroxycyclohexyl)-6-(4-methoxybenzyl)-5-methylisoindolin-1-one], the “activity (%) at 10 μM” value is 100% and the EC50 amounted to 22 nM.
`Cc1c(Cc2ccc(-c3cnn(C)c3)cc2)cc2c(c1C)CN([C@H]1CCCC[C@@H]1O)C2=O` (racemic) [Example 89, rac-2-(trans-2-hydroxycyclohexyl)-4,5-dimethyl-6-(4-(1-methyl-1H-pyrazol-4-yl)benzyl)isoindolin-1-one]: the “activity (%) at 10 μM” value amounted to 94% and the EC50 stood at 5.7 nM.
In the same order, the values of `Cc1c(Cc2ccc(-c3ccn(C)n3)cc2)cc2c(c1C)CN([C@H]1CCC[C@@H]1O)C2=O` (racemic) [Example 83, rac-2-(trans-2-hydroxycyclopentyl)-4,5-dimethyl-6-(4-(1-methyl-1H-pyrazol-3-yl)benzyl)isoindolin-1-one] are 92% and 13 nM.
For `Cc1c(Cc2ccc(C(N)=O)cc2F)cc2c(c1C)CN([C@H]1COCC[C@@H]1O)C2=O` (racemic) [Example 113, rac-3-fluoro-4-((2-(trans-4-hydroxytetrahydro-2H-pyran-3-yl)-6,7-dimethyl-3-oxo-2,3-dihydro-1H-isoindol-5-yl)methyl)benzamide], in that order: 82% and 1.5 nM.
`Cc1cc2c(cc1Cc1ccc(-n3cccn3)cc1)C(=O)N([C@H]1CCC[C@@H]1O)C2` [Example 4, 2-((1S,2S)-2-hydroxycyclopentyl)-5-methyl-6-(4-(1H-pyrazol-1-yl)benzyl)isoindolin-1-one]: the “activity (%) at 10 μM” value is listed as 98% and the EC50 amounted to 19 nM.
Regarding `COc1ccc(Cc2cc3c(c(Cl)c2C)CN([C@H]2COCC[C@@H]2O)C3=O)cc1` [Example 24, 1,5-anhydro-2-(4-chloro-6-(4-methoxybenzyl)-5-methyl-1-oxo-1,3-dihydro-2H-isoindol-2-yl)-2,4-dideoxy-L-threo-pentitol], the “activity (%) at 10 μM” value came out at 88% and the EC50 was determined as 4.3 nM.
For `Cc1cc2c(cc1Cc1ccc(-n3cccn3)cc1)C(=O)N([C@H]1CCC[C@@H]1O)C2` (racemic) [Example 33, rac-2-(trans-2-hydroxycyclopentyl)-5-methyl-6-(4-(1H-pyrazol-1-yl)benzyl)isoindolin-1-one], in that order: 95% and 37 nM.
Turning to `Cc1cc2c(cc1Cc1ccc(-n3cccn3)cc1)C(=O)N([C@H]1COCC[C@@H]1O)C2` [Example 21, 1,5-anhydro-2,4-dideoxy-2-(5-methyl-1-oxo-6-(4-(1H-pyrazol-1-yl)benzyl)-1,3-dihydro-2H-isoindol-2-yl)-L-threo-pentitol], the “activity (%) at 10 μM” value turned out to be 106% and the EC50 stood at 6.2 nM.
`Cc1c(Cc2ccc(-n3cccn3)cc2)cc2c(c1C)CN(c1ncccc1F)C2=O` [Example 153, 2-(3-fluoropyridin-2-yl)-4,5-dimethyl-6-(4-(1H-pyrazol-1-yl)benzyl)isoindolin-1-one]: the “activity (%) at 10 μM” value was 92% and the EC50 was 57 nM.

The record behind these values is patent publication US9315458B2, “Nitrogen-containing heterocyclic compound” (Takeda Pharmaceutical Company Limited, priority 2014, dated 2016).
